# Measurements taken from the METLIN SMRT retention time set (Domingo-Almenara et al. 2019).
# Test: gradient 5% acetonitrile 3 min, to 50% in 2 min, to 85% in 15 min, held 3 min, 100 µL/min
# Conditions: column: Zorbax Extend-C18 2.1 x 50 mm; eluents: water / acetonitrile, 0.1% formic acid
# Summary of the method: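 Over 3 months, pure standards in mixtures of ~100 molecules were run by HPLC coupled to a quadrupole time-of-flight mass spectrometer in positive and negative ionization mode. The column was a Zorbax Extend-C18 (2.1 × 50 mm, 1.8 μm) at 100 μL/min, eluted with water and acetonitrile each holding 0.1% formic acid, with 40 μL dead and 900 μL dwell volumes. Retention time was determined from adduct peaks chosen by software and checked manually.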
row,RP-LC retention time,Compound
1,572 s,Cn1cc(CN2CCC(C(=O)NCC3CCN(Cc4cccc(F)c4)CC3)CC2)c2ccccc21
2,822 s,CCOc1ccccc1C(=O)Nc1ccc2c(c1)Sc1ncccc1C(=O)N2CC
3,787 s,O=C(NC1CCCCC1)c1ccc(CN2CCN(Cc3ccccc3)C(=O)C2=O)cc1
4,736 s,O=C(Nc1cccc(Cl)c1)N1CCC(N2CCN(Cc3ccccc3)C(=O)C2=O)CC1
5,939 s,O=C(O)c1ccccc1-c1ccccc1C(=O)Nc1ccc2c(c1)Cc1ccccc1-2
6,773 s,Cc1ccc(NC(=O)NCC(c2cccnc2)c2cn(C)c3ccccc23)cc1Cl (centres undefined)
7,670 s,CCn1cc(-c2ccccc2)cc1C(=O)NCCN1CCCC1
8,663 s,CC(NC(=O)CC1CCCCC1)C(=O)Nc1nc2ccccc2[nH]1 (centres undefined)
9,669 s,CSc1ccc(CNC(=O)c2ccc3ncnc(N4CCCC4)c3c2)cc1
10,1020 s,O=C(Nc1ccc(Br)cc1F)C1CCCN(c2ccc(=O)n(-c3cccc(F)c3)n2)C1 (centres undefined)
11,1350 s,Cc1ccc(-c2noc(C3CCCN3S(=O)(=O)c3ccc4c(c3)CCCC4)n2)cc1 (centres undefined)
12,1120 s,O=C(Cn1nc(N2CCCCCC2)c2ccccc2c1=O)NC1CCc2ccccc21 (centres undefined)
13,908 s,CC1CCN(C(=O)C2=CN(c3cccc(F)c3)c3ccccc3S2(=O)=O)CC1
14,888 s,CN(C)C(=O)C1CCN(c2nc3ccc(-c4ccccc4)nc3s2)CC1
15,834 s,COc1cccc(CNC(=O)Cn2c(C)cc(-c3nnc(C4CCC4)o3)c2C)c1
16,706 s,O=C(Nc1ccc2c(c1)OCO2)N1CCC(N2CCN(Cc3ccccc3)C(=O)C2=O)CC1
17,704 s,COc1ccccc1CNC1=NCCNC12CCN(S(=O)(=O)c1ccc(F)cc1)CC2
18,854 s,O=C(c1ccccc1Cl)N1CCN(c2cc(-c3ccc(Cl)cc3)[nH]n2)CC1
19,758 s,Cc1ccc(N2C(=O)CN(S(C)(=O)=O)CC2(C)C(=O)NCc2ccccc2)cc1C (centres undefined)

row,RP-LC retention time,Compound
1,1090 s,CCOC(=O)c1cccc(NC(=O)Cn2c(C)nc3c(sc4nc(-c5ccccc5)ccc43)c2=O)c1
2,662 s,Cc1cccc(CC(=O)N2C[C@@H]3C[C@H](NS(C)(=O)=O)[C@H]2C3)c1
3,667 s,CN(C)C(=O)c1ccc2c(c1)N(CC(=O)N1CCN(C(=O)c3ccco3)CC1)C(=O)C1CCCCN21 (centres undefined)
4,1200 s,Cc1ccc(Oc2nccnc2SCC(=O)Nc2cc(C)cc(C)c2)cc1
5,589 s,COc1ccc2[nH]c(=O)c(CCC(=O)N(C)CCc3ccncc3)cc2c1
6,794 s,Cc1ccc(CNC(=O)C2CCN(S(=O)(=O)c3ccc4c(c3)NC(=O)CO4)CC2)cc1
7,758 s,CCOc1ccc(CC(=O)NC(CC(C)C)C(=O)Nc2nc3ccccc3[nH]2)cc1OCC (centres undefined)
8,756 s,O=C(NCc1ccccc1F)C1CCCN(c2nnc3ccc(Cl)cn23)C1 (centres undefined)
9,788 s,COc1cccc(CNC(=O)C2CCCN2S(=O)(=O)c2cc3c(cc2C)NC(=O)C(C)O3)c1 (centres undefined)
10,813 s,O=C(OCc1cccnc1)c1cn(-c2cccc(Cl)c2)c(=O)c2ccccc12
11,588 s,CCN1CCCC1CNC(=O)CCc1cc2cc(C)ccc2[nH]c1=O (centres undefined)
12,780 s,Cc1ccc(CN2C(=O)COC[C@H]2C(=O)Nc2ccc3c(c2)OCCO3)cc1
13,1070 s,CCc1ccc(-c2ccc(-n3nc(C)c(S(=O)(=O)NC4CC4)c3C)nn2)cc1
14,1090 s,Cc1cc(S(=O)(=O)[C@H]2CS(=O)(=O)C[C@@H]2N2CCN(c3cccc(Cl)c3)CC2)ccc1F
15,771 s,COc1ccc(C(CC(=O)N2CCCCC2)N2Cc3ccccc3C2=O)cc1OC (centres undefined)
16,618 s,CCN(CCCNS(=O)(=O)c1ccc2c(c1)CCCC(=O)N2)c1ccccc1
17,638 s,CCC(C)NC(=O)C1CCC(=O)N(c2ccc(OC)cc2)C1c1ccc(OC)c(OC)c1 (centres undefined)
18,1080 s,O=C(OCC12CC3CC(CC(C3)C1)C2)c1ccc(NCc2cc(O)ccc2O)cc1
19,817 s,COc1ccccc1C1(CNC(=O)Cc2ccccc2Cl)CCOCC1

# The remaining lines, values behind:
row,Compound,RP-LC retention time
1,O=C(NCCc1csc(C2CCCN(C(=O)C3CCC3)C2)n1)C1CCC1 (centres undefined),719 s
2,Cc1sc2ccn(C)c(=O)c2c1C(=O)NCc1ccccc1Cl,798 s
3,CO[C@H]1C(=O)N(C(C)C)[C@H]1C1CCN(S(=O)(=O)c2cccc(F)c2)CC1,860 s
4,CCCC(=O)N1CCN(c2nc3ccccc3n(CC(C)C)c2=O)CC1,1000 s
5,CC(C)n1cc(C2=CCN(C(=O)NC3CCCCC3)CC2)c2cccnc21,945 s
6,Cc1nn(C)cc1CN1C[C@@H]2C(=O)N(Cc3ccc4c(c3)OCO4)C(=O)[C@@H]2C1,601 s
7,Cc1noc(C)c1Cc1c(C(=O)NCCn2c(C)cnc2C2CC2)noc1C,623 s
8,Cc1ccc(NC(=O)C(C)Oc2cc(C(F)(F)F)c3c(C)nn(C)c3n2)c(C)c1 (centres undefined),920 s
9,CCCCC(CC)C(=O)Nc1nc(-c2ccc(C(C)C)cc2)cs1 (centres undefined),1390 s
10,CC(C)c1noc(N2CCC(COc3ccc(-c4ccc(S(C)(=O)=O)cc4)nc3)CC2)n1,991 s
11,O=C(CCc1csc(NC(=O)c2ccc[nH]c2=O)n1)NCC1CCCO1 (centres undefined),573 s
12,COc1cc(CNC(=O)C2CCCN(c3cc(=O)n(C)c(=O)n3C)C2)cc(OC)c1OC (centres undefined),636 s
13,O=C(Cc1csc2nc(-c3ccccc3)cn12)N1CCN(c2ccccc2F)CC1,869 s
14,Cc1ccc(NS(=O)(=O)c2cc(-c3cc(C(F)(F)F)on3)sc2C)cc1C,1200 s
15,Cc1ccsc1C(=O)N1[C@H]2CC[C@@H]1c1cnc(-c3ccccc3)nc1C2,982 s
16,COc1cc2c(cc1OC)CN(S(=O)(=O)CCCNC(=O)CC1CCCCC1)CC2,767 s
17,N#Cc1ccc(S(=O)(=O)N2CCC(Cc3nc(-c4ccncc4)n[nH]3)C2)cc1 (centres undefined),620 s
18,O=C(C1CCCN(c2cnc3nccnc3c2)C1)N1CCN(c2ccccc2)CC1 (centres undefined),715 s
19,COCCC1CCN(C(=O)CN(C)C(=O)c2ccnn2C)CC1,586 s
20,Cc1nn(-c2ccc(-c3ccccc3)nn2)c(C)c1S(=O)(=O)NCc1ccc2c(c1)OCO2,978 s
21,CC(C)(C)c1cc(C(C)(C)C)c2c(c1)C(O)(C(F)(F)F)C(=O)O2 (centres undefined),1250 s
22,Cc1noc(C)c1S(=O)(=O)N1CC(N(Cc2cccnc2)CC(C)C)C1,706 s
23,COc1ccc(Cl)cc1N1C=C(C#N)S(=O)(=O)c2ccccc21,918 s
24,Cn1cc(-c2nc(C(=O)Nc3cccc(Cl)c3)cs2)c2cccnc21,1110 s
25,Cc1[nH]c(C(=O)N2CCC(CC(=O)NCCCN3CCCCC3)CC2)c(C)c1C,606 s
26,Cc1ccsc1C(=O)NCC1CCCCC(=O)N1 (centres undefined),640 s
